Where “and” joins values, the source holds several entries; their conditions need not be identical. Equal entries are not always repeated.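 Interpolation was linear, between the two tested concentrations surrounding the appropriate level; five concentrations were tested over 48 hours in 96-well plates. GI50 is the concentration that inhibits growth by half. Definition used: TGI = concentration required for complete inhibition of growth.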
Columns and labels:
Assay in all cases: inhibition of tumour cell growth, NCI panel, 48 h
M14 melanoma = test system: M14 melanoma
MOLT-4 leukemia = test system: MOLT-4 leukemia
NCI-H522 lung = test system: NCI-H522 lung
786-0 renal = test system: 786-0 renal
OVCAR-5 ovarian = test system: OVCAR-5 ovarian
OVCAR-3 ovarian = test system: OVCAR-3 ovarian
HOP-92 NSCLC = test system: HOP-92 NSCLC
NCI/ADR-RES ovarian = test system: NCI/ADR-RES ovarian
SF-295 CNS = test system: SF-295 CNS
NCI-H226 lung = test system: NCI-H226 lung

Structure (SMILES)	GI50 (M14 melanoma)	TGI (M14 melanoma) [µM]	GI50 (MOLT-4 leukemia)	TGI (MOLT-4 leukemia) [µM]	GI50 (NCI-H522 lung)	TGI (NCI-H522 lung)	GI50 (786-0 renal) [µM]	TGI (786-0 renal) [µM]	GI50 (OVCAR-5 ovarian) [µM]	TGI (OVCAR-5 ovarian) [µM]	GI50 (OVCAR-3 ovarian)	TGI (OVCAR-3 ovarian) [µM]	GI50 (HOP-92 NSCLC) [µM]	TGI (HOP-92 NSCLC) [µM]	GI50 (NCI/ADR-RES ovarian)	TGI (NCI/ADR-RES ovarian) [µM]	GI50 (SF-295 CNS)	TGI (SF-295 CNS) [µM]	GI50 (NCI-H226 lung) [µM]	TGI (NCI-H226 lung) [µM]
O=c1[nH]c2ccccc2n1C1CCN(CCOc2ccccc2)CC1	25.4 µM	> 100	48 µM	> 100	56.9 µM	> 100 µM	43.9	> 100	47.8	> 100	14 µM	> 100	22.9	> 100	11.5 µM	> 100	2.87 µM	19.2	30.1	> 100
C1=C\CCCCN2CC[C@H]3[C@H](CCCC/C=C\CCCN4C[C@@H](CCCCC/1)C[C@@H]3C4)C2	1.77 µM	3.44	3.67 µM	17.4	12.6 µM	28.5 µM	12.5	25.9	12.5	25.5	10.8 µM	23.3	4.04	20.1	13.8 µM	28.8	5.3 µM	12.1	13.5	27.7
CC(=N\O)/C(C)=N/O.CC(=N\O)/C(C)=N/O.[Fe].[NH2-].c1c[nH]cn1	> 100 µM	> 100	> 100 µM	> 100	> 100 µM	> 100 µM	> 100	> 100	> 100	> 100	> 100 µM	> 100	28.6	> 100	> 100 µM	> 100	> 100 µM	> 100	> 100	> 100
NC(Cc1c[nH]c2cccc(F)c12)C(=O)O (stereo not given)	59.9 µM and 590 µM	> 4500	41.7 µM and 338 µM	> 4500	27.7 µM and 176 µM	74.5 µM and 729 µM	124	894	1280	> 4500	39.6 µM and 237 µM	967	4110	> 4500	63.9 µM and 418 µM	2360	39.5 µM and 176 µM	1190	3210	> 4500

Source: PubChem BioAssay (NCI)
